Measured values as given in US9808439B2 (Macau University of Science and Technology, priority 2015, dated 2017).
Read-outs that look alike come from different tables or passages of the source.

Assays:
A549/T cells = experiment: SRB cell cytotoxicity assay in A549/T; type: cell-based, human; details: for IC50: Homo sapiens
A2780/T cells [1] = experiment: SRB cell cytotoxicity assay in A2780/T; details: A2780/T; for IC50: read-out: IC50 ± SD
Experimental: Sulphorhodamine B (SRB) assays were carried out as previously described to assess cell density, based on sensitive measure of total cellular protein, which performed similarly compared with other proliferation assays such as MTT assay. Briefly, cells were seeded into flat bottomed 96-well plates at an initial density of 7.5×10^3 per well before treatment. […] After removing the medium, cells were fixed in 10% trichloroacetic acid for 1 h at 4° C. and then washed with water five times. 0.4% SRB dissolved in 1% v/v acetic acid was added and incubated 30 mm for staining. The cells were quickly washed with 1% acetic acid and left to dry overnight. The protein bound SRB was solubilized by adding 200 μl 10 mM Tris buffer per well and measured at wavelengths 490 nm using a plate reader (Spectra MAX 250; Molecular Devices, Sunnyvale, Calif.).

A2780/T cells [2] = experiment: Intracellular accumulation of DOX and Flutax-2 in A2780/T; type: cell-based, human; details: 8 h, 7.53 μM tangeretin or 20 μM QND
Experimental: cells (5×10^6) were cultured on the cover glass (ISO LAB 20×20 mm). […] After treatment, cells were fixed in 4 wt % formaldehyde (Sigma-Aldrich). Nuclear DNA was stained with 1 μg/mL blue-fluorescent DAPI (1 mg/mL in H2O stock solution; Invitrogen D1306). One drop of fluorescent preservation solution (fluorsave reagent, CALBIOCHEM) was added before observation. Imaging was carried out for comparing the intracellular accumulation of DOX and flutax-2 with a Fluorescence Microscopy (Leica DM2500, Leica, Germany). […] Cells were detached, re-suspended in 500 μl of PBS after washed twice with cold PBS, and analyzed by flow cytometry (BD FACS Aria, BD Biosciences, San Jose, Calif.). Excitation and emission wavelengths (nm) used for DOX and flutax-2 were as follows: 480 to 585; and 496 to 524.

[3] = A549, 48 h, A549/T, 48 h, drug alone, read-out: IC50 ± SD
[4] = A549, A549/T, +7.53 μM TG, read-out: IC50 ± SD

SMILES	fold reversal (A549/T cells; A549/T, +7.53 μM TG)	fold reversal (A549/T cells; A549/T, drug alone)	IC50 (A549/T cells; [3]) [µM]	IC50 (A549/T cells; [4]) [µM]	fold reversal (A2780/T cells [1]; +7.53 μM TG)	fold reversal (A2780/T cells [1]; drug alone)	IC50 (A2780/T cells [1]; 48 h, drug alone) [µM]	IC50 (A2780/T cells [1]; +7.53 μM TG) [µM]	fold reversal (A549/T cells; A549/T, +0.84 μM TG)	fold reversal (A549/T cells; A549/T, +5.21 μM TG)	fold reversal (A2780/T cells [1]; +0.84 μM TG)	fold reversal (A2780/T cells [1]; +5.21 μM TG)	IC50 (A2780/T cells [1]; +0.84 μM TG) [µM]	IC50 (A2780/T cells [1]; +5.21 μM TG) [µM]	further results
O=c1[nH]cc(F)c(=O)[nH]1 [5-Fluorouracil, 5-fluorouracil]	6.05	1.00	142 ± 23.1	23.8 ± 1.93	6.31	1.00	179 ± 29	28.4 ± 4.6							fold reversal (A549/T cells; A549/T, +0.83 μM TG): 1.34; fold reversal (A549/T cells; A549/T, +2.51 μM TG): 2.12; IC50 (A549/T cells; A549, A549/T, +0.83 μM TG, read-out: IC50 ± SD): 106 ± 8.63 µM; IC50 (A549/T cells; A549, A549/T, +2.51 μM TG, read-out: IC50 ± SD): 67 ± 5.44 µM; fold reversal (A2780/T cells [1]; +0.83 μM TG): 1.19; fold reversal (A2780/T cells [1]; +2.51 μM TG): 2.12; IC50 (A2780/T cells [1]; +0.83 μM TG): 152 ± 36.7 µM; IC50 (A2780/T cells [1]; +2.51 μM TG): 84.3 ± 6.56 µM
COc1cccc2c1C(=O)c1c(O)c3c(c(O)c1C2=O)C[C@@](O)(C(C)=O)C[C@@H]3O[C@H]1C[C@H](N)[C@H](O)[C@H](C)O1 [Daunorubicin, daunorubicin]	6.36	1.00			8.03	1.00	7.51 ± 0.61	0.96 ± 0.23	1.41	2.25	1.34	2.25	5.66 ± 0.92	3.4 ± 0.82	IC50 (A549/T cells; A549, 48 h, read-out: IC50 ± SD, A549/T, 48 h, drug alone): 6.7 ± 0.54 µM; IC50 (A549/T cells; A549, read-out: IC50 ± SD, A549/T, +0.84 μM TG): 4.74 ± 0.38 µM; IC50 (A549/T cells; A549, read-out: IC50 ± SD, A549/T, +5.21 μM TG): 2.99 ± 0.24 µM; IC50 (A549/T cells; A549, read-out: IC50 ± SD, A549/T, +7.53 μM TG): 1.06 ± 0.08 µM
CC(=O)O[C@@]12CO[C@@H]1C[C@H](O)[C@@]1(C)C(=O)[C@H](O)C3=C(C)[C@@H](OC(=O)[C@H](O)[C@@H](NC(=O)OC(C)(C)C)c4ccccc4)C[C@@](O)([C@@H](OC(=O)c4ccccc4)[C@H]21)C3(C)C [Docetaxel, docetaxel]	12.07	1.00	12.7 ± 2.06	1.06 ± 0.08	33.66	1.00	28.4 ± 4.59	0.84 ± 0.07	1.58	3.82	1.99	7.95	14.2 ± 2.31	3.57 ± 0.58	IC50 (A549/T cells; A549, A549/T, +0.84 μM TG, read-out: IC50 ± SD): 7.8 ± 1.29 µM; IC50 (A549/T cells; A549, A549/T, +5.21 μM TG, read-out: IC50 ± SD): 3.36 ± 0.28 µM
C=C[C@H]1C[N@@]2CC[C@H]1C[C@@H]2[C@@H](O)c1ccnc2ccc(OC)cc12 [QND, quinidine]															intracellular accumulations of DOX and Flutax-2 (A2780/T cells [2]): higher than that of untreated A2780/T
